Data taken from patent publication US5440041A, “Acetal or ketal substituted xanthine compounds” (Cell Therapeutics, Inc., priority 1994, dated 1995).

Columns and labels:
[1] = system: certain cytokines; settings: U.S. Pat. No. 4,965,271 and U.S. Pat. No. 5,096,906; cited from earlier work
[2] = system: PAPH; test: Inhibition of PAPH; format: biochemical; settings: specific activation pathway not involving PI; substrates with 1,2-diunsaturated and 1-alkyl,2-unsaturated subspecies
Procedure: One in vitro assay measures inhibition of the relevant enzymes lysophosphatidic acid acyltransferase (LPAAT) and phosphatidic acid phosphoryl hydrolase (PAPH). The assay involves incubating of target cells with a primary stimulus (e.g., a variety of cytokines, growth factors, oncogene products, putative therapeutic agents, irradiation, viral infection, toxins, bacterial infection and the products thereof, and any stimulus which, if not counteracted, has a deleterious effect on the target cell) in the presence or absence of an inventive compound at varying dosage levels. […] It is important to note that the assay method permits discrimination between various forms of PA and DAG so that those relevant to the pathway affected by the (R) or (S) compounds of the invention can be measured directly. […] Thus, the relevant unsaturated (non-arachidonic) PA and DAG subspecies may be detected. […]

[3] = system: polymorphonuclear leukocytes; settings: in response to a stimulator of chemotaxis; U.S. Pat. No. 4,636,507; cited from earlier work
[4] = system: tumor necrosis factor (TNF); settings: PTX recipients; cited from earlier work

For `CC(=O)CCCCn1c(=O)c2c(ncn2C)n(C)c1=O` [PTX, 1-(5-oxohexyl)-3,7-dimethylxanthine], the “effect on activity of certain cytokines to affect chemotaxis” value [1] is given as “inhibit activity of certain cytokines to affect chemotaxis”, the “effect on PAPH” value [2] is given as “blocks PAPH in a specific activation pathway” and the “effect on chemotaxis in polymorphonuclear leukocytes” value [3] is given as “stimulate chemotaxis”. For the same molecule, the “TNF levels in normal volunteers” value [4] was “higher among PTX recipients”.
